Usually IC50 stands for the concentration at which inhibition is half-maximal.

This note sets out measurements from patent US10807982B2, “Bromodomain inhibitors” (CELGENE QUANTICEL RESEARCH, INC., priority 2015, dated 2020).

For one test, the target named is BRD4(BD1) (Homo sapiens (Human), UniProt O60885). The test is described as follows: In vitro enzyme inhibition assay (BRD4 AlphaScreen, H4-tetraacetyl peptide). In kind it is binding. Particulars: BRD4(BD1) 2 nM, peptide 15 nM. The procedure: Determination of the IC50 for the heterocyclic derivative BRD4 inhibitors disclosed herein was performed as follows. His-tagged […] was cloned, expressed and purified to homogeneity. Filipakopoulos et al., 468 Nature 1067 (2010). BRD4 binding and inhibition was assessed by monitoring the interaction of biotinylated H4-tetraacetyl peptide (AnaSpec, H4K5/8/12/16(Ac), biotin—labeled) with the target using the AlphaScreen technology (Life Technologies). In a 384-well ProxiPlate BRD4(BD1) (2 nM final) was combined with peptide (15 nM final) in 50 mM HEPES (pH 7.3), 10 mM NaCl, 0.25 mM TCEP, 0.1% (w/v) BSA, and 0.005% (w/v) Brij-35 either in the presence of DMSO (final 0.4% DMSO) or compound dilution series in DMSO. After 20 min incubation at RT, Alpha streptavidin donor beads and Nickel Chelate acceptor beads were added to a final concentration of 5 μg/mL. After 2 hr of equilibration, plates were read on an Envision instrument and the IC50 was calculated using a four parameter non-linear curve fit.
The ability of the compounds disclosed herein to inhibit BRD4 activity was quantified and the respective IC50 value was determined.

The test system of test [1] is Raji, human Burkitts lymphoma cells. The test is described as follows: Cell-MTS cellular proliferation assay, Raji. The format is cell-based. Particulars: Homo sapiens, 168 hr incubation. The procedure: (§1) A colorimetric cellular proliferation assay (Cell-MTS assay) was performed to assess the ability of the heterocyclic derivative […] inhibitors disclosed herein to effect the proliferation of established cancer cell lines.
(§2) The Cell-MTS assay is a 7-day plate-based colorimetric assay which quantifies the amount of newly generated NADH in the presence or absence of test compound. The NADH level is used for the quantification of cancer cell proliferation.
(§3) Established cancer cell lines with a variety of driving mutations were obtained from American Type Culture Collection (ATCC) and routinely passaged according to ATCC protocols. For routine assay, these cells were seeded at densities which enabled ˜90% confluence after 7 days of culture. Raji, human Burkitts lymphoma cells, (cMYC) were seeded at 15,000 cells per 96-well. HL-60, human proleukemia cells, (NRAS, p16, p53, c-Myc amplified) were seeded at 5,000 cells per 96-well. NCI-H460, human non-small cell lung cancer cells. (KRAS, PIK3CA, STLK11, p16) were seeded at 3,000 cells per 96-well. 24 hr after plating, cells received an 11 point dilution of test compound with final concentration ranges from 100 µM to 2.0 nM. Cells were incubated in the presence of compound for 168 hr at 37° C., and 5% CO2. At the end of this incubation period, 80 µL of media is removed and 20 µL of CellTiter 96® AQueous Non-Radioactive Cell Proliferation Assay solution (Promega) was added. The cells were incubated until the OD490 was >0.6. IC50 values were calculated using the IDBS XLfit software package and include background subtracted OD490 values and normalization to DMSO controls. Cellular proliferation IC50 values were uploaded and archived using the Chem Biography Platform. Table 3 provides the results of the in vitro enzyme inhibition assay experiments and the in vitro cell-based assay experiments performed with the compounds disclosed herein: […]
Background: Formazan colour is commonly taken as a measure of viable cells.

Test [2] deals with HL-60, human proleukemia cells. The test is described as follows: Cell-MTS cellular proliferation assay, HL-60. Particulars: Homo sapiens, HL-60 cells, 168 hr incubation. The format is cell-based. The procedure: as §1, §2, §3
For test [3], the system named is NCI-H460, human non-small cell lung cancer cells. The test is described as follows: Cell-MTS cellular proliferation assay, NCI-H460. In kind it is cell-based. Particulars: Homo sapiens, 168 hr incubation. The protocol: as §1, §2, §3

Consider `CCS(=O)(=O)Nc1cc(-c2cn(C)c(=O)c3ccccc23)c2oc(C3CC3)cc2c1` [Example 82, N-[2-cyclopropyl-7-(2-methyl-1-oxoisoquinolin-4-yl)-1-benzofuran-5-yl]ethanesulfonamide], for which the IC50 (against BRD4(BD1); in test [1]; in test [2]; in test [3]) was at most 0.5 µM each time.
Take `Cc1cc(-c2cc(S(C)(=O)=O)c3nc(C)n(CC4CC4)c3c2)cn(C)c1=O` [Example 71, 5-[3-(cyclopropylmethyl)-2-methyl-7-methylsulfonylbenzimidazol-5-yl]-1,3-dimethylpyridin-2-one]: the IC50 was at most 0.5 µM against BRD4(BD1), above 5 µM in test [1], 0.5 to 5 µM in test [2] and above 5 µM in test [3].
Consider `Cn1cc(-c2cc3c(S(C)(=O)=O)nn(C)c3cc2OCC2CC2)c2ccccc2c1=O` [Example 29, 4-[6-(cyclopropylmethoxy)-1-methyl-3-methylsulfonylindazol-5-yl]-2-methylisoquinolin-1-one], for which the half-maximal inhibitory concentration (IC50) was at most 0.5 µM on BRD4(BD1), at most 0.5 µM in test [1], at most 0.5 µM in test [2] and 0.5 to 5 µM in test [3].
Take `COc1cc(-c2cc(NS(C)(=O)=O)c3nc(C(F)(F)F)n(CC4CC4)c3c2)cn(C)c1=O` [Example 93, N-[1-(cyclopropylmethyl)-6-(5-methoxy-1-methyl-6-oxopyridin-3-yl)-2-(trifluoromethyl)benzimidazol-4-yl]methanesulfonamide]: the IC50 at BRD4(BD1) is at most 0.5 µM; in test [1] it was at most 0.5 µM; in test [2] it was at most 0.5 µM; in test [3], above 5 µM.
As for `Cc1cc(-c2cc(NS(C)(=O)=O)c3ncn(Cc4ccccc4)c3c2)cn(C)c1=O` [Example 31, N-[1-benzyl-6-(1,5-dimethyl-6-oxopyridin-3-yl)benzimidazol-4-yl]methanesulfonamide], the IC50 was at most 0.5 µM against BRD4(BD1), at most 0.5 µM in test [1], at most 0.5 µM in test [2] and 0.5 to 5 µM in test [3].
`Cn1cc(-c2cc(NS(C)(=O)=O)cc3cc(C4CC4)oc23)c2ccccc2c1=O` [Example 79, N-[2-cyclopropyl-7-(2-methyl-1-oxoisoquinolin-4-yl)-1-benzofuran-5-yl]methanesulfonamide]: the IC50 (against BRD4(BD1); in test [1]; in test [2]; in test [3]) was at most 0.5 µM throughout.
As for `Cc1cc(-c2cc(S(C)(=O)=O)cc3cc(C4CC4)oc23)cn(C)c1=O` [Example 23, 5-(2-cyclopropyl-5-methylsulfonyl-1-benzofuran-7-yl)-1,3-dimethylpyridin-2-one], the half-maximal inhibitory concentration (IC50) at BRD4(BD1) was at most 0.5 µM; in test [1], 0.5 to 5 µM; in test [2], at most 0.5 µM; in test [3] it was above 5 µM.
For the compound `CCCCn1cnc2c(NS(=O)(=O)CC)cc(-c3cc(C)c(=O)n(C)c3)cc21` [Example 40, N-[1-butyl-6-(1,5-dimethyl-6-oxopyridin-3-yl)benzimidazol-4-yl]ethanesulfonamide], the IC50 on BRD4(BD1) is at most 0.5 µM; in test [1] it was at most 0.5 µM; in test [2] it was at most 0.5 µM; in test [3], above 5 µM.
As to `Cn1cc(-c2cc(NS(C)(=O)=O)cc3cc(-c4ccccc4)oc23)c2ccccc2c1=O` [Example 84, N-[7-(2-methyl-1-oxoisoquinolin-4-yl)-2-phenyl-1-benzofuran-5-yl]methanesulfonamide], the concentration for half-maximal inhibition (IC50) (at BRD4(BD1); in test [1]; in test [2]; in test [3]) was at most 0.5 µM each time.
Regarding `COc1nc2c(CS(C)(=O)=O)cc(-c3cc(C)c(=O)n(C)c3)cc2n1CC1CC1` [Example 99, 5-[3-(cyclopropylmethyl)-2-methoxy-7-(methylsulfonylmethyl)benzimidazol-5-yl]-1,3-dimethylpyridin-2-one], the IC50 against BRD4(BD1) was at most 0.5 µM; in test [1], at most 0.5 µM; in test [2] it was at most 0.5 µM; in test [3], above 5 µM.
Regarding `Cc1cc(-c2cc3c(S(C)(=O)=O)nn(C)c3cc2OCC2CC2)cn(C)c1=O` [Example 58, 5-[6-(cyclopropylmethoxy)-1-methyl-3-methylsulfonylindazol-5-yl]-1,3-dimethylpyridin-2-one], the 50% inhibitory concentration (IC50) against BRD4(BD1) was at most 0.5 µM; in test [1], at most 0.5 µM; in test [2], at most 0.5 µM; in test [3], above 5 µM.
Turning to `Cc1cc(-c2cc(S(C)(=O)=O)ccc2OCC2CC2)c2n(c1=O)CCC2` [Example 85, 8-[2-(cyclopropylmethoxy)-5-methylsulfonylphenyl]-6-methyl-2,3-dihydro-1H-indolizin-5-one], the IC50 at BRD4(BD1) is at most 0.5 µM; in test [1], 0.5 to 5 µM; in test [2], at most 0.5 µM; in test [3], above 5 µM.
As to `Cc1cc(-c2cc(NS(C)(=O)=O)c3nc(C)n(CC4CC4)c3c2)cn(C)c1=O` [Example 39, N-[1-(cyclopropylmethyl)-6-(1,5-dimethyl-6-oxopyridin-3-yl)-2-methylbenzimidazol-4-yl]methanesulfonamide], the 50% inhibitory concentration (IC50) at BRD4(BD1) was at most 0.5 µM; in test [1], at most 0.5 µM; in test [2] it was at most 0.5 µM; in test [3], above 5 µM.
`Cn1cc(-c2cc(S(C)(=O)=O)cc3cc(-c4ccccc4)oc23)c2ccccc2c1=O` [Example 26, 2-methyl-4-(5-methylsulfonyl-2-phenyl-1-benzofuran-7-yl)isoquinolin-1-one]: the IC50 against BRD4(BD1) was at most 0.5 µM; in test [1], at most 0.5 µM; in test [2], at most 0.5 µM; in test [3], 0.5 to 5 µM.
Take `Cc1cc(-c2cc3c(cc2OCC2CC2)CN(C)S3(=O)=O)cn(C)c1=O` [Example 5, 5-[5-(cyclopropylmethoxy)-2-methyl-1,1-dioxo-3H-1,2-benzothiazol-6-yl]-1,3-dimethylpyridin-2-one]: the IC50 against BRD4(BD1) is at most 0.5 µM; in test [1], 0.5 to 5 µM; in test [2] it was at most 0.5 µM; in test [3], above 5 µM.
On to `Cn1cc(-c2cc(NS(C)(=O)=O)c3c(c2)N(Cc2ccccc2)CC3)c2ccccc2c1=O` [Example 20, N-[1-benzyl-6-(2-methyl-1-oxoisoquinolin-4-yl)-2,3-dihydroindol-4-yl]methanesulfonamide], for which the half-maximal inhibitory concentration (IC50) is at most 0.5 µM against BRD4(BD1), at most 0.5 µM in test [1], at most 0.5 µM in test [2] and 0.5 to 5 µM in test [3].
As to `CCS(=O)(=O)Nc1cc(-c2cc(C)c(=O)n(C)c2)c2oc(C3CC3)cc2c1`, the concentration for half-maximal inhibition (IC50) on BRD4(BD1) is at most 0.5 µM; in test [1] it was at most 0.5 µM; in test [2], at most 0.5 µM; in test [3], 0.5 to 5 µM.
Consider `CCS(=O)(=O)c1nn(C)c2cc(OCC3CC3)c(-c3cn(C)c(=O)c4ccccc34)cc12` [Example 30, 4-[6-(cyclopropylmethoxy)-3-ethylsulfonyl-1-methylindazol-5-yl]-2-methylisoquinolin-1-one], for which the half-maximal inhibitory concentration (IC50) was at most 0.5 µM against BRD4(BD1), at most 0.5 µM in test [1], at most 0.5 µM in test [2] and 0.5 to 5 µM in test [3].
Consider `CN1Cc2ccc(-c3cn(C)c(=O)c4ccccc34)cc2S1(=O)=O` [Example 1, 2-methyl-4-(2-methyl-1,1-dioxo-3H-1,2-benzthiazol-6-yl)isoquinolin-1-one], for which the IC50 (on BRD4(BD1); in test [1]; in test [2]; in test [3]) was 0.5 to 5 µM throughout.
Regarding `Cc1cc(-c2cc(NS(C)(=O)=O)c3oc(=O)n(CC4CC4)c3c2)cn(C)c1=O` [Example 101, N-[3-(cyclopropylmethyl)-5-(1,5-dimethyl-6-oxopyridin-3-yl)-2-oxo-1,3-benzoxazol-7-yl]methanesulfonamide], the half-inhibitory concentration (IC50) was at most 0.5 µM on BRD4(BD1), 0.5 to 5 µM in test [1], 0.5 to 5 µM in test [2] and above 5 µM in test [3].
